Read-outs that look alike come from different tables or passages of the source.
How the values were obtained:
FGFR2 = FGFR2 (Homo sapiens, UniProt P21802); assay: In vitro kinase inhibition studies (Table 13), FGFR2; type: biochemical
EGFR L850R, T790M = EGFR L850R, T790M (Homo sapiens, UniProt P00533, T790M, form not given); assay: In vitro kinase inhibition studies (Table 13), EGFR L850R, T790M; type: biochemical
FGFR4 = FGFR4 (Homo sapiens, UniProt P22455); assay: In vitro kinase inhibition studies (Table 9), FGFR4; type: biochemical
SRC = SRC (Homo sapiens, UniProt P12931); assay: In vitro kinase inhibition studies (Table 13), SRC; type: biochemical
BTK [1] = molecular target: T1, BTK (Homo sapiens, UniProt Q06187); assay: Enzyme kinetic analysis of BTK inhibition (time-dependent inhibition); type: biochemical; details: 0.1 nM BTK, 500 μM ATP, 60-700 nM compound
Description: One of ordinary skill in the art will recognize that this is consistent with the irreversible inhibition of BTK by Compound 5-1.
Target sequence in this assay (Q06187 whole entry, species assumed): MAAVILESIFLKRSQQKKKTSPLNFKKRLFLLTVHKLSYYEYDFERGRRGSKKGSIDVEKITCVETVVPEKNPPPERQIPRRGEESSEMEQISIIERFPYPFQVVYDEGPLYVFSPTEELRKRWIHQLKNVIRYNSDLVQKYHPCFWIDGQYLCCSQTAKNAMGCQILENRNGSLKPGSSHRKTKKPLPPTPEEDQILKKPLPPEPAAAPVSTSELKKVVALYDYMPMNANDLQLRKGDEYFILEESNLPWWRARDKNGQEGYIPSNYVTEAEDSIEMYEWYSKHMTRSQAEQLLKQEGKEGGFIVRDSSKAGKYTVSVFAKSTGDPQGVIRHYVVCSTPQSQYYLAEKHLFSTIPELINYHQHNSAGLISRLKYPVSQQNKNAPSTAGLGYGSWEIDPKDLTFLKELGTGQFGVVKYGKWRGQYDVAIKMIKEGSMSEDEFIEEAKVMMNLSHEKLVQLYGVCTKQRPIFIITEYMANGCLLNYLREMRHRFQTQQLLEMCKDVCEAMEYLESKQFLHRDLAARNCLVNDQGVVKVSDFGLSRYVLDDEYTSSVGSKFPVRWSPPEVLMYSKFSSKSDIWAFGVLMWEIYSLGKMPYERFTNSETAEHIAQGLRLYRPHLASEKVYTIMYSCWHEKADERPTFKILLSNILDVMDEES

RL cells = assay: IC50 of Ibrutinib analogs against human cancer cells, RL cells (Table 14); type: cell-based; details: for IC50: Homo sapiens, RL, read-out: RL (IC50)
Experimental: 1×10^4 cells (NHF cells)/well are plated in 96-well assay plates in culture medium. […] After 24 hrs, test compounds and vehicle controls are added to appropriate wells so the final volume is 100p in each well. The cells are cultured for the desired test exposure period (72 hrs) at 37° C. and 5% CO2. The assay plates are removed from 37° C. incubator and 20 μl/well of CellTiter-Blue® Reagent is added. The plates are incubated using standard cell culture conditions for 1-4 hours and the plates are shaken for 10 seconds and record fluorescence at 560/590 nm. […] Therapeutic index=(IC50 human fibroblasts/IC50 […] )

BLK = BLK (Homo sapiens, UniProt P51451); assay: In vitro kinase inhibition studies (Table 13), BLK; type: biochemical
BMX = molecular target: T2, BMX (Homo sapiens, UniProt P51813); assay: In vitro kinase inhibition studies (Table 13), BMX; type: biochemical
T2 sequence (P51813 1-675): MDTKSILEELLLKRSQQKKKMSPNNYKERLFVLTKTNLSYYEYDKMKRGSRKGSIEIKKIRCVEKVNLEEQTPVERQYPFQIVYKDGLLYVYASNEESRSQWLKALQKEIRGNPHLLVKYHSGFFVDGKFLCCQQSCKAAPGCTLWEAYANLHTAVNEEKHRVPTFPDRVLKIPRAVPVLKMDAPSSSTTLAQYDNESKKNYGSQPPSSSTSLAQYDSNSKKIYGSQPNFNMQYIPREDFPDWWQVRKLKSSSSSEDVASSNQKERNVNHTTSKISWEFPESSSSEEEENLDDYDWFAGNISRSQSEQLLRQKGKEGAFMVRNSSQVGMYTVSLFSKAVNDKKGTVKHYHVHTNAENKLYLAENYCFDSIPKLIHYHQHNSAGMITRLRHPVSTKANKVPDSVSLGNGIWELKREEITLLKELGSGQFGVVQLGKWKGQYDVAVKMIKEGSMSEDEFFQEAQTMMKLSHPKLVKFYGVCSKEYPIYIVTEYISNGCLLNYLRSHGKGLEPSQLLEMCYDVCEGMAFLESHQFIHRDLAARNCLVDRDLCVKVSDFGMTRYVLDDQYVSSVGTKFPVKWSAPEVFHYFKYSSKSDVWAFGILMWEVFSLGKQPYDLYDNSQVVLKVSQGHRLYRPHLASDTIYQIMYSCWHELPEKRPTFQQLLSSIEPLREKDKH

CSK = CSK (Homo sapiens, UniProt P41240); assay: In vitro kinase inhibition studies (Table 13), CSK; type: biochemical
FGFR1 = FGFR1 (Homo sapiens, UniProt P11362); assay: In vitro kinase inhibition studies (Table 9), FGFR1; type: biochemical
MAP2K7 = MAP2K7 (Homo sapiens, UniProt O14733); assay: In vitro kinase inhibition studies (Table 13), MAP2K7; type: biochemical
BTK [2] = molecular target: T1, BTK; assay: In vitro BTK inhibition, biochemical IC50 (no preincubation); details: Table 7
Experimental: IC50 Values (nM) for the Inhibition of BTK Activity
In vitro BTK and JAK3 inhibition studies are shown in Table 7 and Table 8 (no preincubation).
Target sequence in this assay (Q06187 whole entry, species assumed): as the sequence (Q06187 whole entry, species assumed) above

BTK [3] = molecular target: T1, BTK; assay: Covalent modification of BTK by mass spectrometry of the intact protein; type: binding; parameters: His-tagged BTK kinase domain was prepared from pET-28b(+)-BTK (402-655) vector; details: 10 μM BTK, 50 μM compound, 2 hours at 30° C.; expected 596 Da
Experimental: After incubation of 10 μM BTK in the presence of 50 μM Compound 5-1 for 2 hours at 30° C., the mass of the modified protein was determined by mass spectrometry. […] After incubation with Compound 5-1, the intensity of this had decreased by an order of magnitude, and the most intense peak is consistent with the protein whose mass was increased by 595 Da, corresponding closely to the expected mass of the inhibitor Compound 5-1 (less one fluoride from inhibitor, and one proton from protein, 596 Da).

BLK, sequence (P51451 whole entry, species assumed): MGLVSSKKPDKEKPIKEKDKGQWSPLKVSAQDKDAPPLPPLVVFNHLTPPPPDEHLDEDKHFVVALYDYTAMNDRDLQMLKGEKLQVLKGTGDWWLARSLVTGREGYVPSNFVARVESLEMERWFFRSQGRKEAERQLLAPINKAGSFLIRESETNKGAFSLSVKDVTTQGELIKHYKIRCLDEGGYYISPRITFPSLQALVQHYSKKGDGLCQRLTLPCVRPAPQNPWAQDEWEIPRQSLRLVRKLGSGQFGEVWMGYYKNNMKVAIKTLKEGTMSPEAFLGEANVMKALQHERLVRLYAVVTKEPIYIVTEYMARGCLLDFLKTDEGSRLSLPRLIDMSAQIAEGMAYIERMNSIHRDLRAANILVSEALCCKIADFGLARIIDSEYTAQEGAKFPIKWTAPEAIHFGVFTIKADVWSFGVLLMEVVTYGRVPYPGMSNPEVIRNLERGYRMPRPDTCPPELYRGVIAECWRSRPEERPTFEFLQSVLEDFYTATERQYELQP
FGFR4, sequence (P22455 22-802, species assumed): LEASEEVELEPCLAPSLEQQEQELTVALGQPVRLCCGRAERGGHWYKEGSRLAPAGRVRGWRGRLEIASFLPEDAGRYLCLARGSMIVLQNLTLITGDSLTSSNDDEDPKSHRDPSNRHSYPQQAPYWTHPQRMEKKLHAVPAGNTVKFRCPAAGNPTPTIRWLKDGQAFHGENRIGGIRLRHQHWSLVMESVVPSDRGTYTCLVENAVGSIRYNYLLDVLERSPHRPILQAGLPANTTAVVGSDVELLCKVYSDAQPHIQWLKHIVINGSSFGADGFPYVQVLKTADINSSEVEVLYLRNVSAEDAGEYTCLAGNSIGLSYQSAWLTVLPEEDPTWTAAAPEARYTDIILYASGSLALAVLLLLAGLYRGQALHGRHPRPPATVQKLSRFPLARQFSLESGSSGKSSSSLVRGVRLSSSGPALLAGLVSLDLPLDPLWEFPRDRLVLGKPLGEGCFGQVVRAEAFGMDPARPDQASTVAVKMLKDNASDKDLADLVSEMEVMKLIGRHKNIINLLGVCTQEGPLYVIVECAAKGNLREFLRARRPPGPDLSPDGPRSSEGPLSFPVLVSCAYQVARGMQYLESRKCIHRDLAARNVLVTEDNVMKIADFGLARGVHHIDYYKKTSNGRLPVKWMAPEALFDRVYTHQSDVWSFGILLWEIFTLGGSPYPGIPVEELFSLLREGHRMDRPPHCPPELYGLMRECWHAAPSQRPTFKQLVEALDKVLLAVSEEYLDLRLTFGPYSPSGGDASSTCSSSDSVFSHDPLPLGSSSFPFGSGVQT
MAP2K7, sequence (O14733 whole entry, species assumed): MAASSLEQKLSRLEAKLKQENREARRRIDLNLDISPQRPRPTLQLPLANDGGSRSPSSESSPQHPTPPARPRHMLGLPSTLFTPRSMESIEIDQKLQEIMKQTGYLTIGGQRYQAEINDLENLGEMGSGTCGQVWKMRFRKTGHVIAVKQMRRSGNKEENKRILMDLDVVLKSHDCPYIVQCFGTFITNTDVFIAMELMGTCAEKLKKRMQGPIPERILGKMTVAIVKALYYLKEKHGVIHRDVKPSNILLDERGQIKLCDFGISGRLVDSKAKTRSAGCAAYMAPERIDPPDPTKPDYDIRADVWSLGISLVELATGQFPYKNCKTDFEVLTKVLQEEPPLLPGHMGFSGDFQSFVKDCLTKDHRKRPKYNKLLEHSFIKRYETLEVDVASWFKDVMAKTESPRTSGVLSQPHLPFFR
FGFR1, sequence (P11362 22-822, species assumed): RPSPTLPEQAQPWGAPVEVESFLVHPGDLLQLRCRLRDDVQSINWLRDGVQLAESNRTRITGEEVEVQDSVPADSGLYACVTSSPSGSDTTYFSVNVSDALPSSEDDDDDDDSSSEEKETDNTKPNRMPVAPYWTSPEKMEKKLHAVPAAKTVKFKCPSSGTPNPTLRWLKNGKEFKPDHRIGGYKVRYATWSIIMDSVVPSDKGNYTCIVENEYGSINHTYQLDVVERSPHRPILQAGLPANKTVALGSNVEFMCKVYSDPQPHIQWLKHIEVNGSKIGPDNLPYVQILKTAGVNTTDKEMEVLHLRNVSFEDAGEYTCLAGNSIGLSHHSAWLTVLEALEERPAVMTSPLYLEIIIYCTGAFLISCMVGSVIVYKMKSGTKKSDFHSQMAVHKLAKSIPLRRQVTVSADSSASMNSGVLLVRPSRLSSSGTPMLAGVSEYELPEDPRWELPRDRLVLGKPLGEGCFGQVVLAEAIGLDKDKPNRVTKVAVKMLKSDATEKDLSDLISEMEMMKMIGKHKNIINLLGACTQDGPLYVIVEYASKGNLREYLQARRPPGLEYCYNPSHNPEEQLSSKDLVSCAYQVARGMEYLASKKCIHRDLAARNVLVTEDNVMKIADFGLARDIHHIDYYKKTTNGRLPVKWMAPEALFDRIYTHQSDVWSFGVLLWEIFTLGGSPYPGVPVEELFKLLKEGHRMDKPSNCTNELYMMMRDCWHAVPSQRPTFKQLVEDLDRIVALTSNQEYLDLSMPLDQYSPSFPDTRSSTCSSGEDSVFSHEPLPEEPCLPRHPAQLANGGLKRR
EGFR L850R, T790M, sequence (P00533 whole entry T790M/L858R, form open): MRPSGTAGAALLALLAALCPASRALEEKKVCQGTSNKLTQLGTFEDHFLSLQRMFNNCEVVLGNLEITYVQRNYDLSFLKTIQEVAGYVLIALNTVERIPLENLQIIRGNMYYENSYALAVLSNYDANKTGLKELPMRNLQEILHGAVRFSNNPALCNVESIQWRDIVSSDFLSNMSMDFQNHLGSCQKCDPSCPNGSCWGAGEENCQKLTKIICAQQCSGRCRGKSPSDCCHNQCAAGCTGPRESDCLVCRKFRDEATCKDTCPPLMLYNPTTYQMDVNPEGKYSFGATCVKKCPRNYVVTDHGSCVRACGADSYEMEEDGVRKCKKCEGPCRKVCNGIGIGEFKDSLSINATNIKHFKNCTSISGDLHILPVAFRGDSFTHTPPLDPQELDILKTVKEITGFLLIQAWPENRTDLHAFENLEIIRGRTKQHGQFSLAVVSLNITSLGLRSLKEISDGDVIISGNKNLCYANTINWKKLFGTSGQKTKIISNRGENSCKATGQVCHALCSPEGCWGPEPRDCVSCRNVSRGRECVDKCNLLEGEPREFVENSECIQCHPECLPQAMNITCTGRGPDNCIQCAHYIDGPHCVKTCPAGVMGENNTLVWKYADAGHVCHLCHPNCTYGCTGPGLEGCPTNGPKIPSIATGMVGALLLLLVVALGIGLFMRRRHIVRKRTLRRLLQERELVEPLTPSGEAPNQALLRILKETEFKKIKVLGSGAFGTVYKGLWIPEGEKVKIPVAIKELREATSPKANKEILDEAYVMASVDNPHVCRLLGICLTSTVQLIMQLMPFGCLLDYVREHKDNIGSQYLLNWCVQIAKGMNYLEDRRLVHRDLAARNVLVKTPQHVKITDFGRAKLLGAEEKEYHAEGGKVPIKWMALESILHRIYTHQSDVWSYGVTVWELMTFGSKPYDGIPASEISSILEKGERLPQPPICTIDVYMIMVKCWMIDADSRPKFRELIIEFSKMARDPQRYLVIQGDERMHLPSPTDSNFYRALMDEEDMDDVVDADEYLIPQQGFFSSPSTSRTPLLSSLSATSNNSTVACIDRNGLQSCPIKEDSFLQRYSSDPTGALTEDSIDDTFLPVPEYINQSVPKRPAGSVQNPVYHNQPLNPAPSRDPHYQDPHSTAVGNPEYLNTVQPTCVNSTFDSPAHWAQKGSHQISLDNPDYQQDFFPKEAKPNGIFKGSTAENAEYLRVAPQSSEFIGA
CSK, sequence (P41240 whole entry, species assumed): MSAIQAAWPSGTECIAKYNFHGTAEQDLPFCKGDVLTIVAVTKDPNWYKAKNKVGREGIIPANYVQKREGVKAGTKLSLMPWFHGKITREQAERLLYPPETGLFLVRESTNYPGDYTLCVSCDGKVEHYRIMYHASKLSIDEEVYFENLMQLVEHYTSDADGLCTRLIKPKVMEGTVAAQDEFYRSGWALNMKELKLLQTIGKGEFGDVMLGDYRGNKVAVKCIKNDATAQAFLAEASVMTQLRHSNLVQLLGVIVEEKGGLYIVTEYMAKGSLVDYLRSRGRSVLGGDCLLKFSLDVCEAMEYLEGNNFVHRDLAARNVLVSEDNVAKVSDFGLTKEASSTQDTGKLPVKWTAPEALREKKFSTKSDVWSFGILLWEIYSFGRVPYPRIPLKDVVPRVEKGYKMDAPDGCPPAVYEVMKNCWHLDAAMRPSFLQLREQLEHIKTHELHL

Question: `Nc1ncnc2c1c(-c1ccc(Oc3ccccc3)cc1)nn2[C@@H]1CCCN(S(=O)(=O)c2c(F)c(F)c(F)c(F)c2F)C1` [Compound 5-1, (R)-1-(1-((perfluorophenyl)sulfonyl)piperidin-3-yl)-3-(4-phenoxyphenyl)-1H-pyrazolo[3,4-d]pyrimidin-4-amine] was tested. Which IC50 (FGFR2) did it give?
Answer: The IC50 was 100 to 1000 nM.

Question: What about the IC50 (EGFR L850R, T790M) of the same molecule?
Answer: The IC50 was 100 to 1000 nM.

Question: And the IC50 (FGFR4)?
Answer: Its IC50 is 10 to 300 nM.

Question: And the IC50 (SRC)?
Answer: Its IC50 is 100 to 1000 nM.

Question: And the “inhibition profile of BTK by enzyme kinetic analysis” value (BTK [1])?
Answer: Its value is “time-dependent inhibition”.

Question: What about the IC50 (RL cells; TABLE 9) of the same molecule?
Answer: Its IC50 is 1610 nM.

Question: What about the IC50 (RL cells; Table 14, RL human non-Hodgkin's lymphoma B cell line) of the same molecule?
Answer: The IC50 was 2740 nM.

Question: What about the “cell-based efficacy compared with Ibrutinib” value (RL cells; RL cells) of the same molecule?
Answer: Its value is “better cell-based efficacy”.

Question: What about the IC50 (BLK) of the same molecule?
Answer: Its IC50 is 100 to 1000 nM.

Question: And the IC50 (BMX)?
Answer: Its IC50 is 0.1 to 10 nM.

Question: And the IC50 (CSK)?
Answer: The IC50 was 100 to 1000 nM.

Question: What about the IC50 (FGFR1) of the same molecule?
Answer: Its IC50 is 10 to 300 nM.

Question: What about the IC50 (MAP2K7) of the same molecule?
Answer: The IC50 was 10 to 100 nM.

Question: And the IC50 (BTK [2])?
Answer: Its IC50 is 10 to 100 nM.

Question: What about the “mass increase of BTK protein after incubation with compound” value (BTK [3]) of the same molecule?
Answer: Its value is 595 Da.
